Values after ≈ are worked out from the molar mass of the structure shown.
What was measured:
Test in all cases: in vitro antibacterial evaluation, MIC by broth dilution
Format in all cases: cell-based
Enterococcus sp. = conditions: broth dilution, 18 hours at 35° C.
Summary of the method: (§1)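 Test organisms, which included recent clinical isolates resistant to methicillin, penicillin and/or vancomycin, were inoculated at 5×10^5 CFU/mL into Muller-Hinton II […] containing antibiotic at 64-0.06 μg/mL. Minimum inhibitory concentrations were then read as the lowest level inhibiting growth.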

Escherichia coli = test system: Escherichia coli
Summary of the method: as §1

Staphylococcus sp. = conditions: broth dilution, 18 hours at 35° C.; for MIC Staphylococcus aureus (GC 1131): strain GC 1131
Summary of the method: as §1

Streptococcus sp. = conditions: broth dilution, 18 hours at 35° C.
Summary of the method: as §1

- MIC Enterococcus avium (GC 4558) (Enterococcus sp.; Enterococcus avium (GC 4558)): 64 µg/mL (≈ 44.3 µM)
- MIC Enterococcus faecalis (ATCC 29212) (Enterococcus sp.; Enterococcus faecalis (ATCC 29212)): >64 µg/mL
- MIC Enterococcus faecalis (GC 2242) (Enterococcus sp.; Enterococcus faecalis (GC 2242)): >64 µg/mL
- MIC Enterococcus faecalis (GC 2691) (Enterococcus sp.; Enterococcus faecalis (GC 2691)): >64 µg/mL
- MIC Enterococcus faecalis (GC 3059) (Enterococcus sp.; Enterococcus faecalis (GC 3059)): >64 µg/mL
- MIC Enterococcus faecalis (GC 4552) (Enterococcus sp.; Enterococcus faecalis (GC 4552)): >64 µg/mL
- MIC Enterococcus faecalis (GC 4553) (Enterococcus sp.; Enterococcus faecalis (GC 4553)): >64 µg/mL
- MIC Enterococcus faecalis (GC 4554) (Enterococcus sp.; Enterococcus faecalis (GC 4554)): >64 µg/mL
- MIC Enterococcus faecalis (GC 6189) (Enterococcus sp.; Enterococcus faecalis (GC 6189)): >64 µg/mL
- MIC Enterococcus faecium (GC 2243) (Enterococcus sp.; Enterococcus faecium (GC 2243)): >64 µg/mL
- MIC Enterococcus faecium (GC 4556) (Enterococcus sp.; Enterococcus faecium (GC 4556)): >64 µg/mL
- MIC Enterococcus faecium (GC 4557) (Enterococcus sp.; Enterococcus faecium (GC 4557)): 16 µg/mL (≈ 11.1 µM)
- MIC Enterococcus faecalis (ATCC 29212) (Enterococcus sp.; strain ATCC 29212): >64 µg/mL
- MIC Enterococcus faecalis (GC 2242) (Enterococcus sp.; strain GC 2242): >64 µg/mL
- MIC Enterococcus faecium (GC 2243) (Enterococcus sp.; strain GC 2243): >64 µg/mL
- MIC Enterococcus faecalis (GC 2691) (Enterococcus sp.; strain GC 2691): >64 µg/mL
- MIC Enterococcus faecalis (GC 3059) (Enterococcus sp.; strain GC 3059): >64 µg/mL
- MIC Enterococcus faecalis (GC 4552) (Enterococcus sp.; strain GC 4552): >64 µg/mL
- MIC Enterococcus faecalis (GC 4553) (Enterococcus sp.; strain GC 4553): >64 µg/mL
- MIC Enterococcus faecalis (GC 4554) (Enterococcus sp.; strain GC 4554): >64 µg/mL
- MIC Enterococcus faecium (GC 4556) (Enterococcus sp.; strain GC 4556): >64 µg/mL
- MIC Enterococcus faecium (GC 4557) (Enterococcus sp.; strain GC 4557): 16 µg/mL (≈ 11.1 µM)
- MIC Enterococcus avium (GC 4558) (Enterococcus sp.; strain GC 4558): 64 µg/mL (≈ 44.3 µM)
- MIC Enterococcus faecalis (GC 6189) (Enterococcus sp.; strain GC 6189): >64 µg/mL
- MIC Escherichia coli (ATCC 25922) (Escherichia coli; strain ATCC 25922, 18 hours at 35° C.): >64 µg/mL
- MIC Escherichia coli (GC 4559) (Escherichia coli; strain GC 4559, 18 hours at 35° C.): >64 µg/mL
- MIC Escherichia coli (GC 4560) (Escherichia coli; strain GC 4560, 18 hours at 35° C.): 16 µg/mL (≈ 11.1 µM)
- MIC Staphylococcus aureus (GC 1131) (Staphylococcus sp.; inoculum 5×10^5 CFU/mL): 32 µg/mL (≈ 22.2 µM)
- MIC Staphylococcus aureus (ATCC 29213) (Staphylococcus sp.; strain ATCC 29213): 32 µg/mL (≈ 22.2 µM)
- MIC Staphylococcus aureus (GC 1131) (Staphylococcus sp.): 32 µg/mL (≈ 22.2 µM)
- MIC Staphylococcus aureus (GC 3051) (Staphylococcus sp.; strain GC 3051): 32 µg/mL (≈ 22.2 µM)
- MIC Staphylococcus aureus (GC 3053) (Staphylococcus sp.; strain GC 3053): 32 µg/mL (≈ 22.2 µM)
- MIC Staphylococcus aureus (GC 4541) (Staphylococcus sp.; strain GC 4541): 16 µg/mL (≈ 11.1 µM)
- MIC Staphylococcus aureus (GC 4542) (Staphylococcus sp.; strain GC 4542): 32 µg/mL (≈ 22.2 µM)
- MIC Staphylococcus aureus-SMITH (GC 4543) (Staphylococcus sp.; strain GC 4543): 16 µg/mL (≈ 11.1 µM)
- MIC Staphylococcus aureus (GC 4544) (Staphylococcus sp.; strain GC 4544): 32 µg/mL (≈ 22.2 µM)
- MIC Staphylococcus aureus (GC 4545) (Staphylococcus sp.; strain GC 4545): 16 µg/mL (≈ 11.1 µM)
- MIC Coagulase Negative Staphylococcus (GC 4547) (Staphylococcus sp.; strain GC 4547): 16 µg/mL (≈ 11.1 µM)
- MIC Coagulase Negative Staphylococcus (GC 4548) (Staphylococcus sp.; strain GC 4548): 8 µg/mL (≈ 5.54 µM)
- MIC Coagulase Negative Staphylococcus (GC 4549) (Staphylococcus sp.; strain GC 4549): 8 µg/mL (≈ 5.54 µM)
- MIC Coagulase Negative Staphylococcus (GC 4551) (Staphylococcus sp.; strain GC 4551): 32 µg/mL (≈ 22.2 µM)
- MIC Coagulase Negative Staphylococcus (GC 6257) (Staphylococcus sp.; strain GC 6257): 8 µg/mL (≈ 5.54 µM)
- MIC Staphylococcus aureus-SMITH (GC 4543) (Staphylococcus sp.; strain SMITH GC 4543): 16 µg/mL (≈ 11.1 µM)
- MIC Streptococcus agalactiae (GC 4564) (Streptococcus sp.; Streptococcus agalactiae (GC 4564)): 32 µg/mL (≈ 22.2 µM)
- MIC Streptococcus pneumoniae (ATCC 6301) (Streptococcus sp.; Streptococcus pneumoniae (ATCC 6301)): 8 µg/mL (≈ 5.54 µM)
- MIC Streptococcus pneumoniae (GC 1894) (Streptococcus sp.; Streptococcus pneumoniae (GC 1894)): 8 µg/mL (≈ 5.54 µM)
- MIC Streptococcus pneumoniae (GC 4565) (Streptococcus sp.; Streptococcus pneumoniae (GC 4565)): 16 µg/mL (≈ 11.1 µM)
- MIC Streptococcus pyogenes (GC 4563) (Streptococcus sp.; Streptococcus pyogenes (GC 4563)): 16 µg/mL (≈ 11.1 µM)
- MIC Streptococcus pneumoniae (ATCC 6301) (Streptococcus sp.; strain ATCC 6301): 8 µg/mL (≈ 5.54 µM)
- MIC Streptococcus pneumoniae (GC 1894) (Streptococcus sp.; strain GC 1894): 8 µg/mL (≈ 5.54 µM)
- MIC Streptococcus pyogenes (GC 4563) (Streptococcus sp.; strain GC 4563): 16 µg/mL (≈ 11.1 µM)
- MIC Streptococcus agalactiae (GC 4564) (Streptococcus sp.; strain GC 4564): 32 µg/mL (≈ 22.2 µM)
- MIC Streptococcus pneumoniae (GC 4565) (Streptococcus sp.; strain GC 4565): 16 µg/mL (≈ 11.1 µM)
Structure (SMILES): COc1cc(OC)cc(C2OC3C(OC4C(CO)OC(Oc5ccc(CC6NC(=O)C(C(C)c7ccccc7)NC(=O)CNC(=O)C(CO)NC(=O)C(C(O)C7CNC(=N)N7C7OC(CO)C(O)C(O)C7O)NC(=O)C(C(O)C7CNC(=N)N7)NC6=O)cc5)C(O)C4O)OC(CO)C(O)C3O2)c1 (stereo not drawn) [Example 150a]
- MIC Staphylococcus haemolyticus (GC 4546) (Staphylococcus sp.; strain GC 4546): 16 µg/mL (≈ 11.1 µM)
